The record followed here is paper PMC11887051, “Discovery of ONO-2920632 (VU6011887): A Highly Selective and CNS Penetrant TREK-2 (TWIK-Related K+ Channel 2) Preferring Activator In Vivo Tool Compound” (ACS Chemical Neuroscience, 2025).

“Also recorded” adds a separate entry of the source.

Series [1] concerns the target hERG potassium channel (Homo sapiens, UniProt Q12809). Kind of series: Eurofins Lead Profiling radioligand binding. The settings on record: title: 30 μM.
Series [2] can be described thus: mouse brain homogenate binding. Format: in vitro ADME. The settings on record: read-out: mouse brain fu.
Series [3] deals with ICR male mice. Kind of series: acetic acid writhing assay. Format: in vivo. Particulars: mouse, 0.3, 1, 3 mg/kg PO, 2 h before acetic acid IP, writhes counted 30 min. Here is the method:
To initially explore the role of TREK-2 activation in analgesia, we evaluated 19b in the acetic acid writhing assay. Injection of acetic acid activates nociceptors directly and/or produces inflamed viscera (subdiaphragmatic organs) and subcutaneous (muscle wall) tissues. The number of writhes (characterized by contraction of the abdominal musculature and extension of the limbs) was then counted for 30 min. Analgesic effect was determined by comparing the number of writhes between in the presence of 19b or vehicle. […] At the 3 mg/kg PO dose of 19b, total brain levels are ∼3 μM and free brain in 0.92 μM and CSF levels in 0.22 μM, providing a good PK/PD relationship and supporting the data generated with the TREK activator 3.
Figure 4 Analgesic effect in acetic acid writhing assay. ICR male mice (6 weeks of age) were pretreated with vehicle (0.5 w/v% Methyl Cellulose in distilled water, PO) or 19b (= ONO-2920632) (0.3, 1, 3 mg/kg, PO) or Indomethacin (10 mg/kg, PO). […] The number of writhes (characterized by contraction of the abdominal musculature and extension of the limbs) was then counted for 30 min. Analgesic effect was determined by comparing the number of writhes between in the presence of compound and in the presence of vehicle (*; p < 0.05 by Student’s t test, #; p < 0.05 by Williams test).
Background: In writhing tests, fewer writhes than in controls are read as antinociception.

Series [4] has as its target Muscarinic M2 (Homo sapiens, UniProt P08172). The series is described as follows: Eurofins Lead Profiling radioligand binding. Particulars: title: 30 μM.
Series [5] has as its target Glutamate, NMDA, Glycine (Rattus norvegicus, UniProt P35439). Kind of series: Eurofins Lead Profiling radioligand binding. The settings on record: title: 30 μM.
For series [6], the target named is Transporter, Norepinephrine (NET) (Homo sapiens, UniProt P23975). Kind of series: Eurofins Lead Profiling radioligand binding. Particulars: title: 30 μM.
The target of series [7] is Epidermal Growth Factor (EGF) (Homo sapiens, UniProt P00533). The series is described as follows: Eurofins Lead Profiling radioligand binding. The settings on record: title: 30 μM.
In series [8] the target is Melatonin MT1 (Homo sapiens, UniProt P48039). The series is described as follows: Eurofins Lead Profiling radioligand binding. The settings on record: title: 30 μM.
The target of series [9] is Histamine H2 (Homo sapiens, UniProt P25021). Kind of series: Eurofins Lead Profiling radioligand binding. Particulars: title: 30 μM.
Series [10] deals with Androgen (Testosterone) (Homo sapiens, UniProt P10275). Kind of series: Eurofins Lead Profiling radioligand binding. The settings on record: title: 30 μM.
Series [11] concerns Glutamate, Kainate. The series is described as follows: Eurofins Lead Profiling radioligand binding. Details: species or system Rat. Particulars: title: 30 μM.
For series [12], the target named is Platelet Activating Factor (PAF) (Homo sapiens, UniProt P25105). Kind of series: Eurofins Lead Profiling radioligand binding. The settings on record: title: 30 μM.
In series [13] the test system is Potassium Channel [SKCA]. Kind of series: Eurofins Lead Profiling radioligand binding. Also on record: species or system Rat. Particulars: title: 30 μM.
In series [14] the target is Muscarinic M3 (Homo sapiens, UniProt P20309). The series is described as follows: Eurofins Lead Profiling radioligand binding. The settings on record: title: 30 μM.
Series [15] has as its target Cannabinoid CB1 (Homo sapiens, UniProt P21554). The series is described as follows: Eurofins Lead Profiling radioligand binding. The settings on record: title: 30 μM.
Series [16] has as its target Dopamine D2S (Homo sapiens, UniProt P14416). The series is described as follows: Eurofins Lead Profiling radioligand binding. The settings on record: title: 30 μM.
The test system of series [17] is Glycine, Strychnine-Sensitive. The series is described as follows: Eurofins Lead Profiling radioligand binding. Also on record: species or system Rat. The settings on record: title: 30 μM.
Series [18] addresses Tachykinin NK1 (Homo sapiens, UniProt P25103). The series is described as follows: Eurofins Lead Profiling radioligand binding. The settings on record: title: 30 μM.
Series [19] has as its target T1, hCav1.2 (Homo sapiens, UniProt Q13936).
T1 construct: host or cells: CHO
The series is described as follows: Cav1.2 calcium flux assay. In kind it is cell-based. The settings on record: Ca2+ flux assay. Here is the method: % inhibition = 100 - (ΔRatio of test compound - ΔRatio of 1 µM control compound)/(ΔRatio of 0.3% DMSO - ΔRatio of 1 µM control compound)x100
Cav1.2 calcium flux assay protocol
CHO cells stably expressing human Cav1.2/b2/a2/d1 hCav1.2/CHO were purchased from ChanTest. hCav1.2/CHO were plated in 384-well plates at a density of 1.0x10^4 cells/well, and cultured overnight. After the wash by HBSS + 20 mM HEPES buffer, cells were loaded with Fluo-4 dye for 1 hour at room temperature. After the wash by HBSS + 20mM HEPES buffer, the fluorescent intensity was measured by Panoptic and test compounds, control compounds (verapamil) or 0.3% DMSO were added to each well. The change of fluorescent intensity (ΔRatio) and % inhibition to compare the efficacy and potency of test compounds were calculated using the […]
ΔRatio = (fluorescent intensity at 300 seconds after compound addition)/(average of fluorescent […]
% inhibition = 100 - (ΔRatio of test compound - ΔRatio of 10 µM control compound)/(ΔRatio of 0.3% DMSO - ΔRatio of 10 µM control compound)x100
In vitro Plasma protein binding and Brain homogenate binding: Determination of fraction unbound (f u) in plasma was conducted in vitro via equilibrium dialysis using HTDialysis (HTD) membrane plates. The top half of the plate was filled with 100 uL of Dubelco’s Phosphate Buffered Saline, pH 7.4 (DPBS). […]

T1 sequence (Q13936 whole entry): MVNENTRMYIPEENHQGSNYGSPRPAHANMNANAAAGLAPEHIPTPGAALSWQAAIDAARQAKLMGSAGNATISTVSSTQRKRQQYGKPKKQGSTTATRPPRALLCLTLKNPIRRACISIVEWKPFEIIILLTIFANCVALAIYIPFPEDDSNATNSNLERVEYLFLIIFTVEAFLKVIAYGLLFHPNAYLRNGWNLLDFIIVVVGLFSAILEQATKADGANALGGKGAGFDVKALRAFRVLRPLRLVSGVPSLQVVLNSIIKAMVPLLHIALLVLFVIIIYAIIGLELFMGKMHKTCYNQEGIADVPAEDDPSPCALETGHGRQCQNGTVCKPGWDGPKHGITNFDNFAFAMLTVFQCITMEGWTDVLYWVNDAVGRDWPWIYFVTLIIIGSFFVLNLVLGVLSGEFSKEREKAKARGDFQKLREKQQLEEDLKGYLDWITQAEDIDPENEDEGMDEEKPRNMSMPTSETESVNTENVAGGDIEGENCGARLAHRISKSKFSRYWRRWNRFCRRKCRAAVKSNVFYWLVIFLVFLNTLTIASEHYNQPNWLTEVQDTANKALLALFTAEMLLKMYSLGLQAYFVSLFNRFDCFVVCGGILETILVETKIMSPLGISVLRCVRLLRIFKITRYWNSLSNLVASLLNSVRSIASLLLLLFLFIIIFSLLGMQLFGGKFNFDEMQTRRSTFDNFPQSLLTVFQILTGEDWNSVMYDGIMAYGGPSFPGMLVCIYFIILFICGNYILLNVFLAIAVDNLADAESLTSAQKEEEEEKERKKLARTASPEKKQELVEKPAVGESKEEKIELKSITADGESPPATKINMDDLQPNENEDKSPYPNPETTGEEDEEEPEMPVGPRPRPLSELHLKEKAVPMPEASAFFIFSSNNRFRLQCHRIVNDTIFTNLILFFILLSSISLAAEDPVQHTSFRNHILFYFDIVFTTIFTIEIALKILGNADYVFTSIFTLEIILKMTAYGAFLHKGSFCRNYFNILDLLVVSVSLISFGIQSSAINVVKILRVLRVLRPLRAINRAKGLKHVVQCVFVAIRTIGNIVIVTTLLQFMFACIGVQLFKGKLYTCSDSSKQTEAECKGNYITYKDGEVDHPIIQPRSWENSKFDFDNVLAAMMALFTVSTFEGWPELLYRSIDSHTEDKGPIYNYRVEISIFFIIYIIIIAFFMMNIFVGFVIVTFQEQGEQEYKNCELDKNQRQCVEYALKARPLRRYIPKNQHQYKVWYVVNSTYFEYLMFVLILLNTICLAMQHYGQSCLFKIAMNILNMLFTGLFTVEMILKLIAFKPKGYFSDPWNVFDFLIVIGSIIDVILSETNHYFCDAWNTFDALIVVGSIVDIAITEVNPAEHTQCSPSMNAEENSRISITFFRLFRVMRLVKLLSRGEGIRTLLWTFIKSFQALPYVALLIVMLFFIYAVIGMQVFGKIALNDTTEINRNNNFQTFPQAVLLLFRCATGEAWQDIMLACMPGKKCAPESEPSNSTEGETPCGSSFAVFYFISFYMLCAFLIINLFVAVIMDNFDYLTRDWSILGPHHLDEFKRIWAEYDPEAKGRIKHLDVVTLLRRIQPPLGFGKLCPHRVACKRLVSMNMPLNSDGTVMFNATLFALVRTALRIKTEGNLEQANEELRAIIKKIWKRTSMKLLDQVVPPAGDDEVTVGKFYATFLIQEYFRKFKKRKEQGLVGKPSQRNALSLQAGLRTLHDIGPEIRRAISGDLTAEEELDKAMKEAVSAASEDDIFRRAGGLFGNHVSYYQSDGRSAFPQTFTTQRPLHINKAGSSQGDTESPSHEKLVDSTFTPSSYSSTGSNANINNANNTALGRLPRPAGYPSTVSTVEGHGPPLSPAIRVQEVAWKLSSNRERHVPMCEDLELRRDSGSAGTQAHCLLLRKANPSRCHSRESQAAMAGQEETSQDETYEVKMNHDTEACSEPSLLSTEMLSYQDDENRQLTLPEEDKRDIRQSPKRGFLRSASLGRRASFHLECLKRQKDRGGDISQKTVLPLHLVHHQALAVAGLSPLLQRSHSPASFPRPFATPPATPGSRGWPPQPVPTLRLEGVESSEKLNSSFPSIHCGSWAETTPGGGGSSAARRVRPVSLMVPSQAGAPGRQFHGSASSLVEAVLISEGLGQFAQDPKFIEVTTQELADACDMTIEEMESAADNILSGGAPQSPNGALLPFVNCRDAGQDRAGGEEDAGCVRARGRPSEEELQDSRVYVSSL
T1 sequence (Q08289 whole entry partner): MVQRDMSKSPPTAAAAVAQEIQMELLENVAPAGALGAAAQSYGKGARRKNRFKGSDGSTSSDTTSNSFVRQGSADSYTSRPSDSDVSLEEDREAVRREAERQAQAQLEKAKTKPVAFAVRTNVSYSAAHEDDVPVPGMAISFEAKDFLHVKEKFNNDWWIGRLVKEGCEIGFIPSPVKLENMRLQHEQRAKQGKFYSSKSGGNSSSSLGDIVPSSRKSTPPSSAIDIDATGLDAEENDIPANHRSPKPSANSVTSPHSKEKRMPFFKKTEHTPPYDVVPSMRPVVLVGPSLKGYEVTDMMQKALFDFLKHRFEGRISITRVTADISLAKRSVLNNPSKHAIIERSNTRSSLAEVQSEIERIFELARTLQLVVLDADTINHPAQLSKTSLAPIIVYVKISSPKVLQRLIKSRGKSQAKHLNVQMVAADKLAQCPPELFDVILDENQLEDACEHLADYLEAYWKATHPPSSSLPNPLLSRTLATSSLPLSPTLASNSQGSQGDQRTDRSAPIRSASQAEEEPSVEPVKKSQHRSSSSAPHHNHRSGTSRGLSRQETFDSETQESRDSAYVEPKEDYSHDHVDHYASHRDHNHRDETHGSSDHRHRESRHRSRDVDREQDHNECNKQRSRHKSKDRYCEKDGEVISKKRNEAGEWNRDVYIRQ
T1 sequence (P54289 25-956 partner limits assumed): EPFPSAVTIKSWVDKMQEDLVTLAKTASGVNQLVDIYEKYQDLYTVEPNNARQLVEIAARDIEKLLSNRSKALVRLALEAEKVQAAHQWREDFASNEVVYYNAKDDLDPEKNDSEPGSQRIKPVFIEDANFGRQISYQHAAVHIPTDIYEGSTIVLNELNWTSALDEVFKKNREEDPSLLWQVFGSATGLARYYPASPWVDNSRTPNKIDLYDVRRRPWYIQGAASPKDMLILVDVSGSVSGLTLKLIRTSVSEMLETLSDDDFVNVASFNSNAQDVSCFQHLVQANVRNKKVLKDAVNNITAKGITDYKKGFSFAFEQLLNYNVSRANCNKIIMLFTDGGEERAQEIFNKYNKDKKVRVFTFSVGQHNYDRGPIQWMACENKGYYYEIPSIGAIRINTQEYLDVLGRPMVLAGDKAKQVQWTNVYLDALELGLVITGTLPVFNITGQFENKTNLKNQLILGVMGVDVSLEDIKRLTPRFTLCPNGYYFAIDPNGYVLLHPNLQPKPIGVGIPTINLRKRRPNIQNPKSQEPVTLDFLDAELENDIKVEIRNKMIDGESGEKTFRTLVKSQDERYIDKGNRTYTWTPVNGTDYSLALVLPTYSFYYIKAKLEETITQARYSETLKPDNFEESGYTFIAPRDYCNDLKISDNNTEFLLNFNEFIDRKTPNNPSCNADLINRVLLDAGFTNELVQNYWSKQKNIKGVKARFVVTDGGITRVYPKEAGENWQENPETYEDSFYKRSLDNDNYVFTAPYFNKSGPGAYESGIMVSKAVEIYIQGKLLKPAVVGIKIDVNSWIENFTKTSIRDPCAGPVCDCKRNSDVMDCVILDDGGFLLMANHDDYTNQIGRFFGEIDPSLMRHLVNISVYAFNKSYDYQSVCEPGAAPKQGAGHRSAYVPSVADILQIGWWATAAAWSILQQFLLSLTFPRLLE
T1 sequence (P54289 957-1103 partner limits assumed): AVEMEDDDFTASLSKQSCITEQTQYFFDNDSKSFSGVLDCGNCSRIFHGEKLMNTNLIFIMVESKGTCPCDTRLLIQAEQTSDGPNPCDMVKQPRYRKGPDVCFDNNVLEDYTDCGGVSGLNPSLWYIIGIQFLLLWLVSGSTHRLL
Androgen (Testosterone), sequence (P10275 whole entry): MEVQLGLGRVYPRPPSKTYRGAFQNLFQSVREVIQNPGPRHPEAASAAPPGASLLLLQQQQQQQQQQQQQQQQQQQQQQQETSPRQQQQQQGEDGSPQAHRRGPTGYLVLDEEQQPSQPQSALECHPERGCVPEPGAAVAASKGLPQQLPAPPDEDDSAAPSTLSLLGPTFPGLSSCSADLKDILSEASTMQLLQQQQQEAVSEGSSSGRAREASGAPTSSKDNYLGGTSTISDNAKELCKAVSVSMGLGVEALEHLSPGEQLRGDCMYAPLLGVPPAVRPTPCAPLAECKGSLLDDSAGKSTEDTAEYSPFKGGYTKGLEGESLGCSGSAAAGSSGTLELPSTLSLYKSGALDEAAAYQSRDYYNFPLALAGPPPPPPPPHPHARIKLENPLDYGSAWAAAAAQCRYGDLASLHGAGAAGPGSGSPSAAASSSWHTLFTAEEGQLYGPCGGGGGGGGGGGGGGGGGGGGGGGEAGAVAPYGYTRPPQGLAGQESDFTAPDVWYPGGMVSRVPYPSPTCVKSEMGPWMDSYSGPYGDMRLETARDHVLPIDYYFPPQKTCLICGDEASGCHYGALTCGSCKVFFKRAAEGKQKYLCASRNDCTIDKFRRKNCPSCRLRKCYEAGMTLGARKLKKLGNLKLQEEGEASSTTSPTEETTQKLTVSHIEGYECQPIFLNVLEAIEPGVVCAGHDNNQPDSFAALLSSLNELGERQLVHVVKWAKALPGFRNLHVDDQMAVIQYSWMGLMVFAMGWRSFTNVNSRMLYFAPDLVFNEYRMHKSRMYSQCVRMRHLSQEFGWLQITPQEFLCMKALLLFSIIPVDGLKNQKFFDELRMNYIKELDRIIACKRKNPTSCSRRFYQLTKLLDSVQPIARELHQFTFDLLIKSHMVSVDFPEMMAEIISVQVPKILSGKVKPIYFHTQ

As usually defined, the inhibition is the change of the read-out against control, counted positive when it falls. What is called % Inhibition is the relative decrease from the control value, in per cent. Turning to `O=C(NCc1ccc(OC(F)(F)F)cc1F)c1ccc2ncnn2c1` [Compound 19b], the inhibition is 44% in series [1]; -3% in [4]; -1% in [5]; 29% in series [6]; 2% in series [7]; 17% in [8]. Also, the inhibition was -20% in series [9]; 18% in [10]; 12% in series [12]; 8% in [14]; 17% in [15]; 2% in [18]. Besides, the fraction unbound at 6 h, 1 µM in [2] turned out to be 0.28. The “analgesic effect (number of writhes)” value in series [3] was “dose-dependently reduces the number of writhes; also recorded: analgesic efficacy at 3 mg/kg PO of comparable magnitude to the positive control indomethacin”; in series [3] (listed as ONO-2920632), “robust, dose dependent efficacy”. Besides, the “% Inhibition at 10 µM” value is 13% in series [11], 4% in [13] and -16% in [17]. In [16], the inhibition at 10 µM was found to be 6%.
Broadly, the IC50 is the concentration that inhibits the measured activity by half. For `O=C(NCc1ccc(OC(F)(F)F)cc1Cl)c1ccc2nncn2c1` [Compound 20], in series [19], the IC50 is above 30 µM.
